In general, IC50 refers to the midpoint of a concentration-inhibition curve.

This passage reports IC50 results from US20090062267A1, “L-ALANINE DERIVATIVES AS a5beta1 ANTAGONISTS” (ASTRAZENECA AB, priority 2007, published 2009).

SMILES strings stand for the structures.

In this experiment the target is recombinant human α5β1 (Homo sapiens, UniProt P05556+P08648). Description: In Vitro Binding Assay (a): inhibition of binding of α5β1 integrin to a fragment of human fibronectin (Fn9-10), Origen electrochemiluminescence. The conditions noted are these: geometric mean where tested more than once. The source says:
The assay determined the ability of compounds to inhibit binding of α5β1 integrin to a cognate ligand, a fragment of human fibronectin. The assay used Origen technology (IGEN International) to measure the compound activity. Briefly, α5β1 integrin was coated onto epoxy-paramagnetic beads (Dynal Biotech UK, Bromborough, Wirral, CH62 3QL, UK, Catalogue No 140.11) and biotinylated-fibronectin ligand was coupled to strepatividin labeled Tag-NHS-Ester (BioVeris Corporation, Witney, Oxfordshire, OX28 4GE, UK, Catalogue No 110034). The ruthenium-labeled tag emits an electrochemiluminescence signal upon stimulation which is detected by the Origen reader. Thus, interaction of integrin and ligand causes association of bead and tag, and the resulting electrochemiluminescence signal reflects the level of integrin interaction with fibronectin.
20 μg of recombinant human α5β1 was coated onto 4×10(7) epoxy-paramagnetic beads according to manufacturers instructions at 4° C. for 24 hours. Integrin coating and corresponding activity was subsequently measured for each batch but typically, 25 ng of coated protein was used per assay well.
A DNA fragment encoding the domains 9-10 (amino-acids 1325-1509) of human fibronectin (Swiss-Prot Accession No. P02751) was isolated from cDNA libraries using standard molecular biology and PCR cloning techniques. The cDNA fragment was sub-cloned into a pT73.3 expression vector containing a GST-epitope tag (developed at AstraZeneca; Bagnall et al., Protein Expression and Purification, 2003, 27: 1-11). Following expression in E. coli, the expressed protein, termed Fn9-10, was purified using the GST-tag using standard purification techniques. The recombinant Fn9-10 was subsequently biotinylated using a EZ-link Sulfo-NHS-LC-Biotinylation kit (Perbio Science UK Ltd., Cramlington, Northumberland, NE23 1WA, UK, Catalogue No. 21335) and made to give a final concentration of approximately 1 mg/ml. Tag-NHS-Ester was labeled with streptavidin by incubation at room temperature following manufacturers instructions and buffer-exchanged into PBS to give a concentration of 0.5 mg/ml. Immediately prior to the assay, biotinylated-Fn9-10 and Streptavidin-labeled Tag were diluted in Assay Buffer to give a final concentrations of 0.6 ug/ml and 1.5 ug/ml respectively. The Fn9-10 and Tag solutions were then mixed together in equal volumes and incubated on ice for at least 30 minutes prior to the assay.
Aliquots (20 μl) of each compound dilution were placed into each well of a 384-well round bottomed polypropylene plate (Matrix Technologies, Wilmslow, Cheshire, SK9 3LP, Catalogue No. 4340 384).
For the assay, 25 ng (20 ul) of a5b1-bead suspension and 40 μl of the Fn9-10/Tag pre-incubated solution were added to each well containing 20 μl of compound or control solution. Assay plates were then incubated at room temperature for a minimum of 6 hours before being analysed on an Origen plate reader. The minimum value was subtracted from all values, and the signal was plotted against compound concentration to generate IC50 data.
The data in the above table was generated in an assay substantially as described above in relation to Binding Assay (a). Some of the compounds shown in the table were tested more than once in the assay. For those compounds the IC50 value shown is the geometric mean of the measured IC50 values.

recombinant human α5β1, sequence (P08648 42-1049): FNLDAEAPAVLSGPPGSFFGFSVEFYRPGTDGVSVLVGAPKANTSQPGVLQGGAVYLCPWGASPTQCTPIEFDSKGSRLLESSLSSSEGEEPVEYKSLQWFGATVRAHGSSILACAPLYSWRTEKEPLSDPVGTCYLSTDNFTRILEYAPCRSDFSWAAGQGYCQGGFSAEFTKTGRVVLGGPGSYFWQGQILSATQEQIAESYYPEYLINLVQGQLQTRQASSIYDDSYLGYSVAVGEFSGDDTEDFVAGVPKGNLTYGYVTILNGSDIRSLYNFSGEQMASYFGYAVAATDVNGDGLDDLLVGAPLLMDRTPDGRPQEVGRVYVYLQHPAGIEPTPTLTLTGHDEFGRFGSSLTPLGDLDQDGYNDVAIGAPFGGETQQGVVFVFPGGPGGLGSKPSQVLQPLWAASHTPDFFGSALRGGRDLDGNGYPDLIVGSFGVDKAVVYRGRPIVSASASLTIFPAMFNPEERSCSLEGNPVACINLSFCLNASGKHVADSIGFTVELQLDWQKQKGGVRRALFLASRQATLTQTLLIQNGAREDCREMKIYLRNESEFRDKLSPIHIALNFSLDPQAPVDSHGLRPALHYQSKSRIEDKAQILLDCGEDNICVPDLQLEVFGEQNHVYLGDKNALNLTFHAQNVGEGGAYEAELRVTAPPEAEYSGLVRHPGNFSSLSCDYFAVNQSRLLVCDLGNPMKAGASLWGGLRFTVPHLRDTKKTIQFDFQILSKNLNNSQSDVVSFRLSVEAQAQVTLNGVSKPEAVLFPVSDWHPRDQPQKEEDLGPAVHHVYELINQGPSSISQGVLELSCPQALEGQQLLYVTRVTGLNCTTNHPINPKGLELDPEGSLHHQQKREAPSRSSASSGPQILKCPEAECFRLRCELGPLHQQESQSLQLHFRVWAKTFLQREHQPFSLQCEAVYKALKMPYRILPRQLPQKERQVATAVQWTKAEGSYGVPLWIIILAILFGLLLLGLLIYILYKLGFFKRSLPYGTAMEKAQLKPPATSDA
recombinant human α5β1, sequence (P05556 21-798): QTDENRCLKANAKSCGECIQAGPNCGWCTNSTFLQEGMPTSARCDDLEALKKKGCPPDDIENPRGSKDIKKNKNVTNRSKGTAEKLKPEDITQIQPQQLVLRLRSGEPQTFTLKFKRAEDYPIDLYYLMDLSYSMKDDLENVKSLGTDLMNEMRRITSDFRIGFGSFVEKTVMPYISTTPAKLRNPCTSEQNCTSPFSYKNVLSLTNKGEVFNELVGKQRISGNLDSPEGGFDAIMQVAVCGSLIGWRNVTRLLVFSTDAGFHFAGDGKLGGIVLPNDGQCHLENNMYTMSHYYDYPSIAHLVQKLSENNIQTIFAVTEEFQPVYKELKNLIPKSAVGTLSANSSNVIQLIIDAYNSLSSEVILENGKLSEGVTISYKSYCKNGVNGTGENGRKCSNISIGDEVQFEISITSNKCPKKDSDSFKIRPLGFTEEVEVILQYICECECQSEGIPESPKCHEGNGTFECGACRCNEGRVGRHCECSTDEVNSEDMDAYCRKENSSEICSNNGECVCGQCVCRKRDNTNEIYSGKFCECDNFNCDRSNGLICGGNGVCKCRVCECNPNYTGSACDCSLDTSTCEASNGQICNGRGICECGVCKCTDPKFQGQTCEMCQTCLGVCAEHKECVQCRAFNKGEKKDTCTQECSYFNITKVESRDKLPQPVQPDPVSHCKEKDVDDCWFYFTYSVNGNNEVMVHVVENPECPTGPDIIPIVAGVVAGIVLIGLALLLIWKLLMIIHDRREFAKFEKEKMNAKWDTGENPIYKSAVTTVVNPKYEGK

For `CNc1cccc(CCOc2ccc(C[C@H](NC(=O)c3c(C)n[nH]c3C)C(=O)O)cc2)n1` [Example 1.13, N-[(3,5-dimethyl-1H-pyrazol-4-yl)carbonyl]-O-{2-[6-(methylamino)pyridin-2-yl]ethyl}-L-tyrosine], the IC50 was 17 nM. `CNc1cccc(CCOc2ccc(C[C@H](NC(=O)c3cc(Cl)sc3Cl)C(=O)O)cc2)n1` [Example 1.11, N-[(2,5-dichloro-3-thienyl)carbonyl]-O-{2-[6-(methylamino)pyridin-2-yl]ethyl}-L-tyrosine]: the IC50 amounted to 15 nM.
